Biological target: H1047R PIK3CA enzyme (Homo sapiens, UniProt P42336, H1047R)
Experiment: ADP-Glo Biochemical PIK3CA Kinase Assay
Procedure: Compounds to be assayed were plated in 16 doses of 1:2 serial dilutions (20 nL volume each well) on a 1536-well plate, and the plate warmed to room temperature. […] To the well was added 1 μL of 200 μM ATP and 20 μM of diC8-PIP2 in Substrate Assay Buffer (50 mM HEPES pH7.4, 50 mM NaCl, 5 mM DTT and 0.03% CHAPS) to start the reaction, and the plate was shaken for 10 seconds, then spun briefly at 1500 rpm, and then incubated for 60 minutes at room temperature. The reaction was stopped by adding 2 μL of ADP-Glo reagent (Promega), and spinning briefly at 1500 rpm, and then incubating for 40 minutes. ADP-Glo Detection reagent (Promega) was added and the plate spun briefly at 1500 rpm, then incubated for 30 minutes.

H1047R PIK3CA enzyme, sequence (P42336 whole entry H1047R): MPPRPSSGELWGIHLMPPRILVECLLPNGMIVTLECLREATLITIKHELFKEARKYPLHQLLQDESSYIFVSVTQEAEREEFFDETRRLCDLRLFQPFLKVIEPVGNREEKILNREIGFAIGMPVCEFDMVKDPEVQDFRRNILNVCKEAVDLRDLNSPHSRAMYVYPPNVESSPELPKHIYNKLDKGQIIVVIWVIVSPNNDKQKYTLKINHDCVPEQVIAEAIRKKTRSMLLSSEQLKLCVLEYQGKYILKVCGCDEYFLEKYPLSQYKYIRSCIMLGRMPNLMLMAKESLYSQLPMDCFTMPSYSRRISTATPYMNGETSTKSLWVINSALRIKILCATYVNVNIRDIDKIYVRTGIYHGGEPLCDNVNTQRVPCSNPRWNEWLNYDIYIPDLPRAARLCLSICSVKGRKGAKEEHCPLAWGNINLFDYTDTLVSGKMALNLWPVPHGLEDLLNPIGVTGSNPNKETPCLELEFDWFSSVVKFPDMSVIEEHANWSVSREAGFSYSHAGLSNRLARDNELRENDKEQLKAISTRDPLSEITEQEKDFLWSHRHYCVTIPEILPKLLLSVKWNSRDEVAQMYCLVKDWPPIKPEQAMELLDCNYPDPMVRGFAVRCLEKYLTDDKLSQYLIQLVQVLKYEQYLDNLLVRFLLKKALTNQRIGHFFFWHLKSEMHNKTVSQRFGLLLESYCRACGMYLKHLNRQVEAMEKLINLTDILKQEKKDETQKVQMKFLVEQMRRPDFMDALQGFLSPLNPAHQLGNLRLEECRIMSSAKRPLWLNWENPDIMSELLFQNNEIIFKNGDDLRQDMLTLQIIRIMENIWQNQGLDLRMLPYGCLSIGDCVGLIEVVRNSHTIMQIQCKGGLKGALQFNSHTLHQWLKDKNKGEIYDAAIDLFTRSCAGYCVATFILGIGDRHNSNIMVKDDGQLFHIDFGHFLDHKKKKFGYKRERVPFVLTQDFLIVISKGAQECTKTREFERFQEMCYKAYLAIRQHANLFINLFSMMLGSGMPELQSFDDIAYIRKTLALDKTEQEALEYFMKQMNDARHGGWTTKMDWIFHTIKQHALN
H1047R PIK3CA enzyme, sequence (P27986 whole entry partner): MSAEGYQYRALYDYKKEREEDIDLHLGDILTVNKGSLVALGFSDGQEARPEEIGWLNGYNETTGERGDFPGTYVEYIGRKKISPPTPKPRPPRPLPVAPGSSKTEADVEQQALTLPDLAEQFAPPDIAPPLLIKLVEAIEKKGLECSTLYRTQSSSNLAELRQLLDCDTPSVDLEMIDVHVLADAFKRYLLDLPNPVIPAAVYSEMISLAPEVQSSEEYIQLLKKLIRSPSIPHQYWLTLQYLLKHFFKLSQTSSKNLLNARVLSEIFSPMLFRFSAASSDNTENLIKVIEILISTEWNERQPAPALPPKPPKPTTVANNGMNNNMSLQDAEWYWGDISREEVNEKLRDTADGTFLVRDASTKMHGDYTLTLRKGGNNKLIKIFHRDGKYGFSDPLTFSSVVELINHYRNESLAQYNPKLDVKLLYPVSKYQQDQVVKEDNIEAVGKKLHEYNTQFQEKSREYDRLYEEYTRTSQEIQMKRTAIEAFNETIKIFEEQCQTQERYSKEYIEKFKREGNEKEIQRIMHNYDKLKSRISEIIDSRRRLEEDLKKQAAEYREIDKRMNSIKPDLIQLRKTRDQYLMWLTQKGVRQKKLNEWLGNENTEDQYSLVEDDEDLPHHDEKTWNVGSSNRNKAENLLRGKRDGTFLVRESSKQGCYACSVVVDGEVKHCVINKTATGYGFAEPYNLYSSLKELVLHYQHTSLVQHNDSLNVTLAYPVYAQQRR

SMILES | IC50
CC(C)(O)c1cc(NC(=O)c2nsc3ccccc23)c2c(c1)C(=O)NC2c1cc(F)ccc1Cl (stereo not shown) [Compound I-136] | ≤ 100 nM
O=C(Nc1cc(-c2ccc(=O)n(C3CC3)c2)cc2c1[C@H](c1cc(F)ccc1Cl)NC2=O)c1cc(F)cc(C(F)(F)F)c1 [Compound I-745] | ≤ 100 nM
O=C1NC(c2cc(F)ccc2Cl)c2c(NC(=O)c3ccnc4ccc(Cl)cc34)cc(Br)cc21 (stereo not shown) [Compound I-606] | 10000 to 100000 nM
COc1ccc2snc(C(=O)Nc3cccc4c3C(c3ccccc3C)NC4=O)c2c1 (stereo not shown) [Compound I-129] | 10000 to 100000 nM
Cc1ccccc1C1NC(=O)c2cc([C@@H](C)NC(=O)OC(C)(C)C)cc(NC(=O)c3csc4ccccc34)c21 (mixture of isomers) [Compound I-89] | 100 to 500 nM
Cc1ccccc1C1NC(=O)c2cccc(NC(=O)c3n[nH]c4ccccc34)c21 (stereo not shown) [Compound I-24] | 10000 to 100000 nM
N#Cc1cnccc1-c1cc(NC(=O)c2cc(F)cc(C(F)(F)F)c2)c2c(c1)C(=O)N[C@@H]2c1cc(F)ccc1Cl (stereo in doubt) [Compound I-1231] | 500 to 1000 nM
Cc1ccccc1C1NC(=O)c2cccc(NC(=O)c3nscc3Br)c21 (stereo not shown) [Compound I-463] | 1000 to 10000 nM
O=C1NC(c2cc(F)ccc2Cl)c2c(NC(=O)N3CCC(c4ccccc4)C3)cc(Br)cc21 (racemic) [Compound I-598] | 1000 to 10000 nM
Cc1ccccc1C1NC(=O)c2cccc(NC(=O)c3ncn4ccc(Cl)cc34)c21 (stereo not shown) [Compound I-258, 7-chloro-N-[3-(2-methylphenyl)-1-oxo-2,3-dihydro-1H-isoindol-4-yl]imidazo[1,5-a]pyridine-1-carboxamide] | 1000 to 10000 nM
Cn1cc(-c2cc(NC(=O)c3cc(F)cc(C(F)(F)F)c3)c3c(c2)C(=O)NC3c2cc(F)ccc2Cl)ccc1=O (stereo not shown) [Compound I-648] | ≤ 100 nM
Cc1nc(C)c(-c2cc(NC(=O)c3cc(F)cc(Cl)c3)c3c(n2)C(=O)NC3c2cc(F)ccc2Cl)s1 (stereo not shown) [Compound I-459] | ≤ 100 nM
Cn1c(Nc2cccc3c2C(c2cc(F)ccc2Cl)NC3=O)nnc1C1CC1 (stereo not shown) [Compound I-880] | 10000 to 100000 nM
O=C(Nc1cc(Br)cc2c1[C@H](c1cc(F)c(F)cc1Cl)NC2=O)c1cc(F)cc(C(F)(F)F)c1 [Compound I-677] | ≤ 100 nM
O=C(Nc1cc(Br)cc2c1C(c1ccccc1C(F)F)NC2=O)c1cc(F)cc(C(F)(F)F)c1 (stereo not shown) [Compound I-792] | ≤ 100 nM
Cc1ccccc1-n1[nH]c(=O)c2cccc(N)c21 [Compound I-64] | 1000 to 10000 nM
Cc1ccccc1[C@@H]1NC(=O)c2cc(N)cc(NC(=O)c3cc(F)cc(C(F)(F)F)c3)c21 [Compound I-66] | ≤ 100 nM
O=C1NC(c2ccccc2Cl)c2c(NC(=O)c3csc4ccccc34)ccnc21 (stereo not shown) [Compound I-9] | 100 to 500 nM
Cc1ccccc1C1NC(=O)c2cccc(NC(=O)c3csc4ccncc34)c21 (stereo not shown) [Compound I-74] | 1000 to 10000 nM
O=C(Nc1cc(Br)cc2c1C(c1cccc(F)c1F)NC2=O)c1cc(F)cc(C(F)(F)F)c1 (stereo not shown) [Compound I-684] | 1000 to 10000 nM
O=C(Nc1cc(Br)cc2c1C(c1cc(F)ccc1Cl)NC2=O)c1cc(F)cc(COC(F)(F)F)c1 (stereo not shown) [Compound I-1241] | 1000 to 10000 nM
O=C(Nc1cc(N[C@H]2C[C@H](O)C2)cc2c1C(c1cc(F)ccc1Cl)NC2=O)c1cc(F)cc(C(F)(F)F)c1 (single isomer, unassigned) [Compound I-609] | ≤ 100 nM
O=C(Nc1cc(Br)cc2c1C(c1cc(F)ccc1Cl)NC2=O)c1ccc(OC(F)F)c(F)c1 (stereo not shown) [Compound I-1286] | 1000 to 10000 nM
O=C(Nc1cc(-c2ccn[nH]2)cc2c1C(c1cc(F)ccc1Cl)NC2=O)c1cc(F)cc(C(F)(F)F)c1 (stereo not shown) [Compound I-815] | ≤ 100 nM
O=C1N[C@@H](c2ccccc2Cl)c2c(NC(=O)c3csc4ccccc34)ccnc21 [Compound I-32] | 1000 to 10000 nM
O=C(Nc1cc(-c2ccc3ncnn3c2)cc2c1[C@@H](c1cc(F)ccc1Cl)NC2=O)c1cc(F)cc(Cl)c1 (stereo in doubt) [Compound I-1166] | 1000 to 10000 nM
Cc1ccccc1C1NC(=O)c2nccc(NC(=O)N3CC(C)c4ccccc43)c21 (stereo not shown) [Compound I-249] | 100 to 500 nM
O=C(Nc1cc(-c2ccc3ncccc3c2)cc2c1[C@@H](c1cc(F)ccc1Cl)NC2=O)c1cc(F)cc(C(F)(F)F)c1 [Compound I-893] | 1000 to 10000 nM

The next lines start with the values.

IC50 | SMILES
≤ 100 nM | CNS(=O)(=O)Cc1cc(NC(=O)c2cc(F)cc(C(F)(F)F)c2)c2c(c1)C(=O)NC2c1cc(F)ccc1Cl (stereo not shown) [Compound I-1365]
≤ 100 nM | O=C(Nc1cc(-c2ccc3nc(Cl)nn3c2)cc2c1[C@H](c1cc(F)ccc1Cl)NC2=O)c1cc(F)cc(C(F)(F)F)c1 [Compound I-1693]
10000 to 100000 nM | Cc1cccc(C2(C(=O)Nc3cc(Br)cc4c3C(c3cc(F)ccc3Cl)NC4=O)CCCC2)c1 (stereo not shown) [Compound I-1639]
10000 to 100000 nM | O=C(Nc1cc(Br)cc2c1[C@@H](c1cc(F)ccc1Cl)NC2=O)N[C@]1(CC(F)(F)F)CCCOC1 (racemic) [Compound I-1961]
10000 to 100000 nM | CC(C)(O)c1cnc2ccc(-c3cc(NC(=O)c4cc(F)cc(C(F)(F)F)c4)c4c(c3)C(=O)N[C@@H]4c3cc(F)ccc3Cl)cc2c1 [Compound I-1605]
10000 to 100000 nM | O=C1N[C@@H](c2cc(F)ccc2Cl)c2c(NC(=O)N3C[C@H](O)c4cccc(F)c43)cccc21 (single isomer, unassigned) [Compound I-2209]
1000 to 10000 nM | O=C(Nc1cc(-c2ccc(=O)n(C(F)F)c2)cc2c1[C@@H](c1cc(F)ccc1Cl)NC2=O)c1cc(F)cc(C(F)(F)F)c1 [Compound I-1860]
1000 to 10000 nM | O=C1NC(c2cc(F)ccc2Cl)c2c(NC(=O)C3CCC4C(C3)C4(F)F)cc(Br)cc21 (stereo not shown) [Compound I-1623]
≤ 100 nM | O=C(Nc1cc(-c2ccc3ocnc3n2)cc2c1C(c1cc(F)ccc1Cl)NC2=O)c1cc(F)cc(C(F)(F)F)c1 (stereo not shown) [Compound I-1553]
10000 to 100000 nM | O=C(Nc1cccc2c1C(C1CNC1)NC2=O)c1cc(F)cc(C(F)(F)F)c1 (stereo not shown) [Compound I-1833]
100 to 500 nM | CC(=O)Nc1cc(NC(=O)N2C[C@](O)(C(F)(F)F)c3cc(F)ccc32)c2c(c1)C(=O)N[C@H]2c1cc(F)ccc1Cl (single isomer, unassigned) [Compound I-2574]
100 to 500 nM | CS(=O)(=O)N1CCC[C@H](Oc2cc(NC(=O)c3cc(F)cc(C(F)(F)F)c3)c3c(c2)C(=O)NC3c2cc(F)ccc2Cl)C1 (mixture of isomers) [Compound I-1526]
10000 to 100000 nM | C[C@H](CCC(F)(F)F)C(=O)Nc1cccc2c1[C@@H](c1cc(F)ccc1Cl)NC2=O [Compound I-2140]
≤ 100 nM | N#Cc1cnn(-c2cc(NC(=O)N3C[C@@H](O)c4cc(F)ccc43)c3c(c2)C(=O)N[C@H]3c2cc(F)ccc2Cl)c1 (single isomer, unassigned) [Compound I-2405]
100 to 500 nM | C[S@](=O)(Cc1cc(NC(=O)c2cc(F)cc(C(F)(F)F)c2)c2c(c1)C(=O)N[C@@H]2c1cc(F)ccc1Cl)=NC#N (single isomer, unassigned) [Compound I-1561]
≤ 100 nM | O=C(Nc1cc(-c2ccn3ccnc3c2)cc2c1[C@H](c1cc(F)ccc1Cl)NC2=O)c1cc(F)cc(C(F)(F)F)c1 [Compound I-1450]
≤ 100 nM | Nc1cc(NC(=O)N2C[C@H](O)c3ccccc32)c2c(c1)C(=O)N[C@H]2c1cc(F)ccc1Cl (single isomer, unassigned) [Compound I-2132]

IC50 | SMILES
10000 to 100000 nM | O=C1N[C@H](c2cc(F)ccc2Cl)c2c(NC(=O)[C@@H]3CC[C@H](C(F)(F)F)C3)cccc21 [Compound I-2084]
10000 to 100000 nM | O=C(NCCC(O)C(F)(F)F)c1cccc2c1C(c1cc(F)ccc1Cl)NC2=O (stereo not shown) [Compound I-2094]
10000 to 100000 nM | CC(O)C(CC(=O)Nc1cccc2c1C(c1cc(F)ccc1Cl)NC2=O)C(C)C(F)(F)F (stereo not shown) [Compound I-2198]
≤ 100 nM | N#Cc1nc(-c2cc(NC(=O)c3cc(F)cc(C(F)(F)F)c3)c3c(c2)C(=O)NC3c2cc(F)ccc2Cl)cs1 (stereo not shown) [Compound I-1311]
1000 to 10000 nM | O=C(Nc1cccc2c1C(c1cc(F)ccc1Cl)NC2=O)c1cscc1C(F)(F)F (stereo not shown) [Compound I-2361]
100 to 500 nM | O=C1N[C@H](c2cc(F)ccc2Cl)c2c(NC(=O)N3C[C@@H](O)c4cc(F)ccc43)cc(-c3ccc(=O)n(C(F)F)c3)cc21 (single isomer, unassigned) [Compound I-2449]
≤ 100 nM | O=C(Nc1cc(-c2ccc3ncc(Cl)n3c2)cc2c1C(c1cc(F)ccc1Cl)NC2=O)c1cc(F)cc(C(F)(F)F)c1 (stereo not shown) [Compound I-1694]
10000 to 100000 nM | NC1CCC(C(=O)Nc2cc(-c3ccc4ncnn4c3)cc3c2C(c2cc(F)ccc2Cl)NC3=O)CC1 (stereo not shown) [Compound I-1759]
1000 to 10000 nM | O=C1NC(c2cc(F)ccc2Cl)c2c(NC(=O)c3nsc(Cl)c3Cl)cc(Br)cc21 (stereo not shown) [Compound I-1426]
100 to 500 nM | CC(C)(O)C(O)c1cc(NC(=O)c2cc(F)cc(C(F)(F)F)c2)c2c(c1)C(=O)NC2c1cc(F)ccc1Cl (racemic) [Compound I-1307]
≤ 100 nM | O=C1C=C(c2cc(NC(=O)c3cc(F)cc(C(F)(F)F)c3)c3c(c2)C(=O)NC3c2cc(F)ccc2Cl)CO1 (stereo not shown) [Compound I-1587]
100 to 500 nM | O=C(Nc1cc(-c2ccn3nc(Cl)nc3c2)cc2c1[C@@H](c1cc(F)ccc1Cl)NC2=O)c1cc(F)cc(C(F)(F)F)c1 [Compound I-1606]
1000 to 10000 nM | O=C(Nc1cc(-c2ccc3ncnn3c2)cc2c1C(c1cc(F)ccc1Cl)NC2=O)c1cc2ccccc2[nH]1 (stereo not shown) [Compound I-1609]
≤ 100 nM | O=C(Nc1cc(CS(=O)(=O)c2ccccc2)cc2c1C(c1cc(F)ccc1Cl)NC2=O)c1cc(F)cc(C(F)(F)F)c1 (stereo not shown) [Compound I-1436]
1000 to 10000 nM | O=C(Nc1cc(OCC(F)F)cc2c1[C@@H](c1cc(F)ccc1Cl)NC2=O)c1cc(F)cc(C(F)(F)F)c1 [Compound I-2061]
1000 to 10000 nM | O=C(Nc1cccc2c1C(CC1CCCC1)NC2=O)c1cc(F)cc(C(F)(F)F)c1 (stereo not shown) [Compound I-2109]

From patent publication US12581252B2, “Substituted pyrrolo[3,4-b]pyridines as PI3K-α inhibitors” (Relay Therapeutics, Inc., priority 2020, dated 2026)
